In patent publication US20110313672A1, “CELLULAR ANTIOXIDANT ACTIVITY (CAA) ASSAY” (CORNELL UNIVERSITY, priority 2007, published 2011):
“And” between values parts separate entries of the source, which are not always exact repeats. Equal values may be shown once. Read-outs that look alike come from different tables or passages of the source.

Key:
HepG2 cells = assay: Cellular antioxidant activity (CAA) assay: inhibition of peroxyl radical-induced DCFH oxidation; type: cell-based, human; conditions: for EC50: mean ± SD, n=3; for CAA value: Example 1, pure compounds, EC50 converted to quercetin equivalents
[1] = Oxygen radical absorbance capacity (ORAC) assay; conditions: Example 3; flavonoids; mean ± SD, n ≧ 3
Experimental: The peroxyl radical scavenging efficacy of selected fruits was measured using the ORAC assay (Prior, R. L., et al (2003) J. Agric. Food Chem. 51:3273-3279). Briefly, 20 μL of blank, Trolox standard, or fruit extracts in 75 mM potassium phosphate buffer, pH 7.4 (working buffer), was added to triplicate wells in a black, clear-bottom, 96-well microplate. The triplicate samples were distributed throughout the microplate and were not placed side-by-side, to avoid any effects on readings due to location. In addition, no outside wells were used, as use of those wells results in greater variation. A volume of 200 μL of 0.96 μM fluorescein in working buffer was added to each well and incubated at 37° C. for 20 min, with intermittent shaking, before the addition of 20 μL of freshly prepared 119 mM ABAP in working buffer using a 12-channel pipetter. The microplate was immediately inserted into a Fluoroskan Ascent FL plate reader (ThermoLabsystems) at 37° C. The decay of fluorescence at 538 nm was measured with excitation at 485 nm every 4.5 min for 2.5 h. The areas under the fluorescence versus time curve for the samples minus the area under the curve for the blank were calculated and compared to a standard curve of the areas under the curve for 6.25, 12.5, 25, and 50 μM Trolox standards minus the area under the curve for blank. ORAC values were expressed as mean micromoles of Trolox equivalents (TE) per 100 g of fruit±SD for triplicate data from one experiment.
ORAC measurements were performed as described herein in Example 2.

## (−)-epigallocatechin gallate [EGCG]
HepG2 cells; Example 1, Table 1, PBS wash, pure phytochemical compounds, read-out: EC50 for inhibition of peroxyl radical-induced DCFH oxidation
  EC50: 15.8 ± 0.4 µM
HepG2 cells; Example 1, Table 1, no PBS wash, pure phytochemical compounds, read-out: EC50 for inhibition of peroxyl radical-induced DCFH oxidation
  EC50: 14 ± 1 µM
HepG2 cells; PBS wash
  CAA value: 32.3 ± 0.9 µmol QE/100 µmol
HepG2 cells; no PBS wash
  CAA value: 42.2±3.1 μmol QE/100 μmol
HepG2 cells; Example 3, Table 7, PBS wash
  CAA: 63.8 ± 4.4 μmol of QE/100 μmol
HepG2 cells; Example 3, Table 7, PBS wash, flavonoids, read-out: EC50
  EC50: 12.8 ± 0.9 µM
HepG2 cells; Example 3, Table 7, no PBS wash
  CAA: 72.1 ± 3.8 μmol of QE/100 μmol
HepG2 cells; Example 3, Table 7, no PBS wash, flavonoids, read-out: EC50
  EC50: 12.3 ± 0.7 µM
[1]
  ORAC: 4.55±0.40 μmol of TE/μmol and 4.55 ± 0.40 fgh μmol of TE/μmol
